Test results published in US20040058868A1, “Methods for identification of compounds modulating insulin resistance” (priority 2002, published 2004).

Experiments:
[1] = clinical trials in humans, reference [26]; cited from earlier work
IRS-1/HDAC2 interaction [2] = assay: Coimmunoprecipitation of IRS-1 and HDAC2 in HepG2 cells; assay type: cell-based; conditions: stimulation with insulin
Method: To further validate the IRS-1/HDAC2 interaction, several mammalian cell lines were used. MCF-7 is a human breast adenocarcinoma cell line, HepG2 is a hepatocellular carcinoma cell line and L6 is a rat skeletal muscle cell line. The MCF-7 cell line was chosen since these cells have a high endogenous production of IRS-1. […] All precleared fractions were matched for protein content and then immunoprecipitated with anti-IRS-1 antibody. […] A similar. experiment was performed the other way around, i.e. HDAC2 was immunoprecipitated from the cell extracts and the subsequent membrane was probed with anti-IRS-1 antibodies.

IRS-1/HDAC2 interaction [3] = assay: Coimmunoprecipitation of IRS-1 and HDAC2 in L6 cells; assay type: cell-based, rat; conditions: stimulation with insulin
Method: To further validate the IRS-1/HDAC2 interaction, several mammalian cell lines were used. MCF-7 is a human breast adenocarcinoma cell line, HepG2 is a hepatocellular carcinoma cell line and L6 is a rat skeletal muscle cell line. The MCF-7 cell line was chosen since these cells have a high endogenous production of IRS-1. Cells were grown to confluency, […] cell lysis buffer (comprising 20 mM Hepes, pH 7.6, 20% glycerol, 10 mM NaCl, 1.5 mM MgCl2, 0.2 mM EDTA, 0.1% NP40, 25 mM NaF, 25 mM β-glycerophosphate, 1 mM DTT, 1 mM Na orthovanadate with protease inhibitors). All precleared fractions were matched for protein content and then immunoprecipitated with anti-IRS-1 antibody. […] A similar. experiment was performed the other way around, i.e. HDAC2 was immunoprecipitated from the cell extracts and the subsequent membrane was probed with anti-IRS-1 antibodies.

IRS-1/HDAC2 interaction [4] = assay: Coimmunoprecipitation of IRS-1 and HDAC2 in MCF-7 cells; assay type: cell-based, human; conditions: MCF-7 cells treated with PMA; IP with anti-IRS-1 or anti-HDAC2
Method: (§1) To further validate the IRS-1/HDAC2 interaction, several mammalian cell lines were used. MCF-7 is a human breast adenocarcinoma cell line, HepG2 is a hepatocellular carcinoma cell line and L6 is a rat skeletal muscle cell line. The MCF-7 cell line was chosen since these cells have a high endogenous production of IRS-1. Cells were grown to confluency, treated with IGF-1 or PMA ([…]) for different lengths of time and then harvested in hypotonic cell lysis buffer (comprising 20 mM Hepes, pH 7.6, 20% glycerol, 10 mM NaCl, 1.5 mM MgCl2, 0.2 mM EDTA, 0.1% NP40, 25 mM NaF, 25 mM β-glycerophosphate, 1 mM DTT, 1 mM Na orthovanadate with protease inhibitors). All precleared fractions were matched for protein content and then immunoprecipitated with anti-IRS-1 antibody. […] A similar. experiment was performed the other way around, i.e. HDAC2 was immunoprecipitated from the cell extracts and the subsequent membrane was probed with anti-IRS-1 antibodies.

[5] = tested on: IRS-1 tyrosine phosphorylation in MCF-7 cells; assay: IRS-1 tyrosine phosphorylation: immunoprecipitation with anti-IRS-1, western blot with anti-phospho-tyrosine antibodies; assay type: cell-based, human; conditions: insulin 10 min, FIG. 3
Method: FIG. 3 illustrates immunoprecipitation of IRS-1 and detection of antiphosphotyrosine. MCF-7 cells were treated as follows: lane 1: insulin 10 min; lane 2: PMA & TSA for 4 h and insulin 10 min; lane 3: PMA for 4 h and insulin 10 min; lane 4: PMA & TSA for 4 h; lane 5: PMA for 4 h; lane 6: control (vehicle);
as §1, with “antibodies. […]” for “antibodies.”

[6] = tested on: IRS-1 acetylation in MCF-7 cells; assay: IRS-1 acetylation: immunoprecipitation with anti-IRS-1, western blot with anti-acetyl lysine antibodies; assay type: cell-based, human; conditions: MCF-7 cells treated with TSA
Method: FIG. 2 illustrates immunoprecipitation of IRS-1 and detection of anti-acetyl-lysine. MCF-7 cells were treated as follows: lane 1: IGF-1 for 10 min; lane 2: IGF-1 for 30 min; lane 3: IGF-1 for 1 h; lane 4: IGF-1 for 6 h; lane 5: IGF-1 for 24 h; lane 6: PMA for 6 h; lane 7: PMA for 6 h and IGF-1 for 10 min; lane 8: PMA for 24 h; lane 9: PMA and TSA for 6 h; lane 10: TSA for 6 h; lane 11: control (vehicle).
as §1, with “antibodies. […]” for “antibodies.”

Compound: O=C(CCCCCCC(=O)Nc1ccccc1)NO [SAHA, suberoylanilide hydroxamic acid]
- tolerability / toxicity [1]: well-tolerated, are not toxic

Compound: insulin: insulin used to stimulate cells
- interaction between IRS-1 and HDAC2 (coimmunoprecipitation) (IRS-1/HDAC2 interaction [2]): not influenced
- interaction between IRS-1 and HDAC2 (coimmunoprecipitation) (IRS-1/HDAC2 interaction [3]): not influenced

Compound: CCCCCCCCCCCCCC(=O)O[C@@H]1[C@@H](C)[C@@]2(O)[C@@H](C=C(CO)C[C@]3(O)C(=O)C(C)=C[C@@H]23)[C@@H]2C(C)(C)[C@]12OC(C)=O [PMA, phorbol myristic acid]
- interaction between IRS-1 and HDAC2 (coimmunoprecipitation) (IRS-1/HDAC2 interaction [4]): the interaction is PMA-driven
- insulin-stimulated tyrosine phosphorylation of IRS-1 (insulin resistance) ([5]; PMA 4 h): makes the cells insulin resistant

Compound: CC(/C=C/C(=O)NO)=C\[C@@H](C)C(=O)c1ccc(N(C)C)cc1 [TSA, Trichostatin A]
- reversal of PMA-induced insulin resistance (tyrosine phosphorylation of IRS-1) ([5]; PMA and TSA simultaneously 4 h): insulin resistance can to a large extent be remedied
- acetylation of IRS-1 ([6]; FIG. 2): significantly pronounced
- acetylation of IRS-1 ([6]; FIG. 2, listed as Trichostatin A): enhanced
